# Experimental data taken from ChEMBL document CHEMBL4371050, “Synthesis and evaluation of esterified Hsp70 agonists in cellular models of protein aggregation and folding” (Bioorg Med Chem, 2019).
# Calls of active or inactive are those of the source. The calls are words filed in the database; no cut-off is given here.
# Species: Homo sapiens
# Assay: Agonist activity at Hsp70 in human H4 cells expressing wild type alpha-synuclein (unknown origin) assessed as inhibition of alpha-synuclein aggregation by measuring increase in cells lacking alpha-synuclein inclusions at 100 uM after 24 hrs by epifluorescence microscopic analysis
# Assay type: cell-based
# Conditions: not given
row,Compound,Activity
1,CC1=C(C(=O)OCc2ccccc2)C(c2ccc(Cl)cc2Cl)NC(=O)N1CCCCC(=O)O (stereo not given),Active

# Tested on: HEK293
# Assay: Agonist activity at Hsp70 in HEK293 cells expressing CFTR F508del mutant (unknown origin) assessed as increase in steady-state levels of CFTR mutant at 30 uM after 24 hrs by immunoblot assay
# Assay type: cell-based
# Conditions: Homo sapiens
row,Compound,fold change (FC)
1,CC1=C(C(=O)OCc2ccccc2)C(c2ccc(Cl)cc2Cl)NC(=O)N1CCCC(=O)OCc1ccc2ccccc2n1 (stereo not given),1.2
2,COC(=O)CCCN1C(=O)NC(c2ccc(Cl)cc2Cl)C(C(=O)OCc2ccccc2)=C1C (stereo not given),0.8
3,CC1=C(C(=O)OCc2ccccc2)C(c2ccc(Cl)cc2Cl)NC(=O)N1CCCC(=O)OCCN1CCOCC1 (stereo not given),1
4,CC1=C(C(=O)OCc2ccccc2)C(c2ccc(Cl)cc2Cl)NC(=O)N1CCCCC(=O)O (stereo not given),1.2

# Tested on: HEK293
# Assay: Agonist activity at Hsp70 in HEK293 cells expressing CFTR F508del mutant (unknown origin) assessed as increase in steady-state levels of CFTR mutant at 100 uM after 24 hrs by immunoblot assay
# Assay type: cell-based
# Conditions: Homo sapiens
row,Compound,fold change (FC)
1,CC1=C(C(=O)OCc2ccccc2)C(c2ccc(Cl)cc2Cl)NC(=O)N1CCCC(=O)OCc1ccc2ccccc2n1 (stereo not given),1.1
2,COC(=O)CCCN1C(=O)NC(c2ccc(Cl)cc2Cl)C(C(=O)OCc2ccccc2)=C1C (stereo not given),0.7
3,CC1=C(C(=O)OCc2ccccc2)C(c2ccc(Cl)cc2Cl)NC(=O)N1CCCC(=O)OCCN1CCOCC1 (stereo not given),1.1
4,CC1=C(C(=O)OCc2ccccc2)C(c2ccc(Cl)cc2Cl)NC(=O)N1CCCCC(=O)O (stereo not given),0.8

# Tested on: not listed separately
# Assay: Cytotoxicity against HEK293H cells after 24 hrs by CellTiter-Glo assay
# Assay type: cell-based
# Conditions: human
row,Compound,GI50
1,CC1=C(C(=O)OCc2ccccc2)C(c2ccc(Cl)cc2Cl)NC(=O)N1CCCC(=O)OCc1ccc2ccccc2n1 (stereo not given),> 100 µM
2,COC(=O)CCCN1C(=O)NC(c2ccc(Cl)cc2Cl)C(C(=O)OCc2ccccc2)=C1C (stereo not given),> 300 µM
3,CC1=C(C(=O)OCc2ccccc2)C(c2ccc(Cl)cc2Cl)NC(=O)N1CCCC(=O)OCCN1CCOCC1 (stereo not given),> 100 µM
4,CC1=C(C(=O)OCc2ccccc2)C(c2ccc(Cl)cc2Cl)NC(=O)N1CCCCC(=O)O (stereo not given),> 100 µM

# Tested on: not listed separately
# Assay: Cytotoxicity against HEK293H cells assessed as cell viability at 100 uM after 24 hrs by CellTiter-Glo assay
# Assay type: cell-based
# Conditions: human
row,Compound,Activity
1,CC1=C(C(=O)OCc2ccccc2)C(c2ccc(Cl)cc2Cl)NC(=O)N1CCCC(=O)OCc1ccc2ccccc2n1 (stereo not given),93%
2,COC(=O)CCCN1C(=O)NC(c2ccc(Cl)cc2Cl)C(C(=O)OCc2ccccc2)=C1C (stereo not given),82%
3,CC1=C(C(=O)OCc2ccccc2)C(c2ccc(Cl)cc2Cl)NC(=O)N1CCCC(=O)OCCN1CCOCC1 (stereo not given),56%
4,CC1=C(C(=O)OCc2ccccc2)C(c2ccc(Cl)cc2Cl)NC(=O)N1CCCCC(=O)O (stereo not given),109%

# Tested on: MCF7
# Assay: Cytotoxicity against human MCF7 cells after 24 hrs by CellTiter-Glo assay
# Assay type: cell-based
# Conditions: mcf7, 24 h
row,Compound,GI50
1,CC1=C(C(=O)OCc2ccccc2)C(c2ccc(Cl)cc2Cl)NC(=O)N1CCCC(=O)OCc1ccc2ccccc2n1 (stereo not given),> 100 µM
2,COC(=O)CCCN1C(=O)NC(c2ccc(Cl)cc2Cl)C(C(=O)OCc2ccccc2)=C1C (stereo not given),> 300 µM
3,CC1=C(C(=O)OCc2ccccc2)C(c2ccc(Cl)cc2Cl)NC(=O)N1CCCC(=O)OCCN1CCOCC1 (stereo not given),> 100 µM
4,CC1=C(C(=O)OCc2ccccc2)C(c2ccc(Cl)cc2Cl)NC(=O)N1CCCCC(=O)O (stereo not given),> 100 µM

# Tested on: MCF7
# Assay: Cytotoxicity against human MCF7 cells assessed as cell viability at 100 uM after 24 hrs by CellTiter-Glo assay
# Assay type: cell-based
# Conditions: mcf7, 24 h
row,Compound,Activity
1,CC1=C(C(=O)OCc2ccccc2)C(c2ccc(Cl)cc2Cl)NC(=O)N1CCCC(=O)OCc1ccc2ccccc2n1 (stereo not given),99%
2,COC(=O)CCCN1C(=O)NC(c2ccc(Cl)cc2Cl)C(C(=O)OCc2ccccc2)=C1C (stereo not given),90%
3,CC1=C(C(=O)OCc2ccccc2)C(c2ccc(Cl)cc2Cl)NC(=O)N1CCCC(=O)OCCN1CCOCC1 (stereo not given),72%
4,CC1=C(C(=O)OCc2ccccc2)C(c2ccc(Cl)cc2Cl)NC(=O)N1CCCCC(=O)O (stereo not given),113%

# Species: Homo sapiens
# Assay: Agonist activity at Hsp70 in human H4 cells expressing wild type alpha-synuclein (unknown origin) assessed as inhibition of alpha-synuclein aggregation by measuring decrease in percentage of cells displaying 1 to 5 alpha-synuclein inclusions at 100 uM after 24 hrs by epifluorescence microscopic analysis
# Assay type: cell-based
# Conditions: not given
row,Compound,Activity
1,CC1=C(C(=O)OCc2ccccc2)C(c2ccc(Cl)cc2Cl)NC(=O)N1CCCCC(=O)O (stereo not given),Active

# Tested on: H4
# Assay: Cytotoxicity against human H4 cells expressing wild type alpha-synuclein (unknown origin) assessed as reduction in cell viability after 24 hrs by CellTiter-Glo assay
# Assay type: cell-based
# Conditions: h4, 24 h
row,Compound,Activity
1,CC1=C(C(=O)OCc2ccccc2)C(c2ccc(Cl)cc2Cl)NC(=O)N1CCCC(=O)OCc1ccc2ccccc2n1 (stereo not given),Non-Toxic
2,COC(=O)CCCN1C(=O)NC(c2ccc(Cl)cc2Cl)C(C(=O)OCc2ccccc2)=C1C (stereo not given),Non-Toxic
3,CC1=C(C(=O)OCc2ccccc2)C(c2ccc(Cl)cc2Cl)NC(=O)N1CCCC(=O)OCCN1CCOCC1 (stereo not given),Non-Toxic
4,CC1=C(C(=O)OCc2ccccc2)C(c2ccc(Cl)cc2Cl)NC(=O)N1CCCCC(=O)O (stereo not given),Non-Toxic
